Results taken from ChEMBL document CHEMBL1201862, “PubChem BioAssay data set” (2004).
Calls of active or inactive are those of the source.

Tests used:
[1] = Vero E6 cell cytotoxicity, dose response, cytotoxicity control for non-replicating M. tuberculosis project, secondary assay (AID 492998); format: functional, VeroE6; details: Vero C1008
[2] = target: T1, Mannose-6-phosphate isomerase (Homo sapiens, UniProt P34949); experiment: inhibitors of human PMI, primary screen, biochemical, fluorescence intensity, coupled assay (AID 1209)
T1 sequence (P34949 whole entry): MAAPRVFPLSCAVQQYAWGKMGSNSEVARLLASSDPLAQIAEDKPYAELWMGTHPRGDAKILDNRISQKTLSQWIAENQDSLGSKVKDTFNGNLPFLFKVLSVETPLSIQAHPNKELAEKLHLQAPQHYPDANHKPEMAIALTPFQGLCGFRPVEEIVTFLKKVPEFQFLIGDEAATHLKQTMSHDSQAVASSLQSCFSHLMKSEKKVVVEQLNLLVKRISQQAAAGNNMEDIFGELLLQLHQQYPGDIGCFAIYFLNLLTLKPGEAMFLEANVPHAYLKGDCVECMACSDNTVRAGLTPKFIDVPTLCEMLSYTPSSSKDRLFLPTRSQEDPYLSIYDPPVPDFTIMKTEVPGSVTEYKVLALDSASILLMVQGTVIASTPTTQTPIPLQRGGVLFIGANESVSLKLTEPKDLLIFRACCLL

[3] = HepG2 cell cytotoxicity, dose response, cytotoxicity control for non-replicating M. tuberculosis project (AID 489018); format: functional; details: Mycobacterium tuberculosis
INS1 = experiment: beta cell apoptosis inhibitors, cytokine rescue, dose response, luminescence, retest (AID 449756); format: functional, cell-based; details: Rattus norvegicus;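 also: cell death triggered by IL-1 beta plus TNF-alpha plus IFN-gamma mixture; protective hits raise ATP signal compared with cytokine alone wells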
Protein Wnt-3a = Protein Wnt-3a (Mus musculus, UniProt P27467); experiment: Wnt3a-driven reporter signaling inhibition, dose response, selectivity assay for Gli-SUFU antagonist project, Wnt-LIGHT cells, luminescence (AID 651570); format: functional; details: read-out: IC50_Mean;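 also: Wnt-LIGHT reporter cells stimulated with conditioned medium from Wnt3a-producing cells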
[4] = inhibitors of SNCA 5'UTR-driven reporter translation, confirmation, H4 neuroglioma cells, luminescence (AID 1988); format: functional, cell-based
[5] = inhibitors of firefly luciferase expression or activity, dose response, H4 neuroglioma cells, luminescence (AID 1990); format: functional, cell-based
cells = format: functional
[6] = Luminescence Cell-Based Dose Response HTS to Identify Inhibitors of 5'UTR Stem-Loop Driven Prion Protein mRNA Translation in H4 Neuroglioblastoma Cells. [Related pubchem assays: 1827 (Project Summary), 1813 (Primary HTS)]; format: functional
[7] = target: T1, Mannose-6-phosphate isomerase; experiment: human PMI inhibitors, high substrate, primary screen, biochemical, fluorescence intensity, high mannose 6-phosphate (AID 1220)
[8] = THP-1 cell cytotoxicity, dose response, cytotoxicity control for non-replicating M. tuberculosis project (AID 489025); format: functional
[9] = target: Lysine-specific demethylase 4C (Homo sapiens, UniProt Q9H3R0); experiment: GASC-1 (JMJD2C) histone demethylase inhibitors, dose response, biochemical, DELFIA europium, cherry-picked samples (AID 488835); format: functional
[10] = inhibitors of intracellular T. cruzi replication, confirmation, NIH3T3 host cells, beta-gal luminescence (AID 2044); format: functional, cell-based;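 also: intracellular parasites grown in NIH/3T3 mouse fibroblasts as host cells; luminescent beta-galactosidase reporter signal from transgenic T. cruzi replicating inside host cells; inhibitors lower the luminescence signal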
[11] = cytotoxicity toward NIH3T3 fibroblasts, dose response, counter-screen, cell-based, ATP luminescence, mouse fibroblasts (AID 2010); format: functional;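 also: cells exposed to compound for about 90 hours before reading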
[12] = target: T2, Kappa-type opioid receptor (Homo sapiens, UniProt P41145); experiment: SAR analysis of small molecule antagonists of the kappa opioid receptor via a luminescent beta-arrestin assay - Set 3. [Related pubchem assays (depositor defined):AID1777, AID1778, AID1785, AID1786, AID1966, AID2133, AID2136, AID2285, AID2495]; format: functional
[13] = target: T2, Kappa-type opioid receptor; experiment: SAR analysis of Antagonists of the Kappa Opioid Receptor (KOR) using an Image-Based Assay - Set 3. [Related pubchem assays (depositor defined):AID1777, AID1785]; format: functional
Mu-type opioid receptor = Mu-type opioid receptor (Homo sapiens, UniProt P35372); experiment: SAR Analysis of Antagonists of the MOR Receptor using an Image-Based Assay - Set 3. [Related pubchem assays (depositor defined):AID1777, AID1785, AID1786, AID1966, AID2133, AID2136, AID2284, AID2285, AID2420]; format: functional
[14] = target: Delta-type opioid receptor (Homo sapiens, UniProt P41143); experiment: SAR Analysis of Antagonists of the DOR Receptor using an Image-Based Assay - Set 3. [Related pubchem assays (depositor defined):AID1777, AID1785]; format: functional;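 also: U2OS cells expressing DOR1 and beta-arrestin GFP stimulated with 100 nM SNC80; imaging of GFP-tagged beta-arrestin moving into spots after receptor activation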
[15] = target: Induced myeloid leukemia cell differentiation protein Mcl-1 (Homo sapiens, UniProt Q07820); format: functional
[16] = target: T3, Voltage-gated N-type calcium channel alpha-1B subunit/Amyloid beta A4 precursor protein-binding family A member 1 (Homo sapiens, UniProt Q00975+Q02410); experiment: disruptors of Mint-PDZ/N-type channel peptide interaction – biochemical, HTRF, SAR follow-up (AID 2489); format: functional
[17] = target: T4, Runt-related transcription factor 1/Core-binding factor subunit beta (Homo sapiens, UniProt Q01196+Q13951); experiment: inhibitors of RUNX1 Runt–CBFb-SMMHC binding, primary screen, biochemical, FRET, Cerulean-Runt, Venus-CBFb-SMMHC, uHTS (AID 1434); format: protein assay;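 also: partner is the CBFb-SMMHC leukemia fusion protein rather than wild-type CBFb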
[18] = target: 26S proteasome non-ATPase regulatory subunit 14 (Homo sapiens, UniProt O00487); experiment: inhibition of proteasome subunit RPN11 – biochemical, fluorescence polarization, uHTS hits, confirmation (AID 602368); format: functional
[19] = target: T5, Probable nicotinate-nucleotide adenylyltransferase (Staphylococcus aureus (strain N315), UniProt P65502); format: functional, Staphylococcus aureus subsp. aureus N315; details: read-out: IC50_Mean;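 as to IC50 Mean: confirmatory dose-response retesting of NadD inhibitor hits first found in an ultra-high-throughput screen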
[20] = target: T3, Voltage-gated N-type calcium channel alpha-1B subunit/Amyloid beta A4 precursor protein-binding family A member 1; experiment: disruptors of Mint-PDZ/N-type channel peptide interaction – biochemical, HTRF, set 2, SAR follow-up (AID 434980); format: functional
[21] = target: T3, Voltage-gated N-type calcium channel alpha-1B subunit/Amyloid beta A4 precursor protein-binding family A member 1; format: protein assay
[22] = target: T3, Voltage-gated N-type calcium channel alpha-1B subunit/Amyloid beta A4 precursor protein-binding family A member 1; format: protein assay; remark: listed apart in the source
[23] = target: T5, Probable nicotinate-nucleotide adenylyltransferase; format: functional, Staphylococcus aureus subsp. aureus N315
[24] = target: 72 kDa type IV collagenase (Homo sapiens, UniProt P08253); experiment: Dose Response validation of uHTS RPN11 inhibitor hits using a MMP-2 Fluorescence assay.; format: functional
Prothrombin = Prothrombin (Bos taurus, UniProt P00735); experiment: thrombin inhibition, dose response, biochemical, fluorescence polarization, uHTS hits (AID 602369); format: functional
[25] = target: T4, Runt-related transcription factor 1/Core-binding factor subunit beta; experiment: inhibitors of RUNX1 Runt–CBFb-SMMHC binding, biochemical, TR-FRET (AID 1438); format: protein assay
Troponin, cardiac muscle = Troponin, cardiac muscle (Homo sapiens, UniProt P19429+P45379+P63316); experiment: Fluorescence-based biochemical high throughput dose response assay for activators of the calcium sensitivity of cardiac Regulated Thin Filaments (RTF). [Related pubchem assays (depositor defined):AID493008, AID493018, AID504382, AID504383]; format: protein-complex assay
Perilipin-1/ABHD5 = Perilipin-1/ABHD5 (Homo sapiens, UniProt O60240+Q8WTS1); experiment: Luminescence-based biochemical high throughput dose response assay for inhibitors of the interaction of the lipase co-activator protein, abhydrolase domain containing 5 (ABHD5) with perilipin-1 (PLIN1) (2K validation set). [Related pubchem assays (depositor defined):AID493027, AID493057]
[26] = target: 1-acylglycerol-3-phosphate O-acyltransferase ABHD5/Perilipin-5 (Homo sapiens, UniProt Q00G26+Q8WTS1); experiment: Luminescence-based biochemical high throughput dose response assay for inhibitors of the interaction of the lipase co-activator protein, abhydrolase domain containing 5 (ABHD5) with perilipin-5 (MLDP; PLIN5) (2K validation set). [Related pubchem assays (depositor defined):AID493035, AID493241]

With `Cc1cc(N/N=C/c2ccc(O)cc2O)nc(-n2nc(C)cc2C)n1` the CC50 [1] was 3.72 µM (active), the IC50 [2] was > 50 µM (not active) and the CC50 [3] was 11.4 µM (active). The AC50 (INS1) was 0.3 µM (active), the IC50 (Protein Wnt-3a) was 41.3 µM (inactive) and the EC50 [4] was 11.2 µM (active). The EC50 [5] was 10.9 µM (active), the IC50 (cells) was 0.18 µM (active) and the EC50 [6] was 11.4 µM (active). The IC50 [7] was > 50 µM (not active), the CC50 [8] was 8.18 µM (active) and the AC50 [9] was 2.7 µM (active). The EC50 [10] was 2.05 µM (active) and the EC50 [11] was > 30 µM (not active).

In the case of `Cc1ccc(CN(CCNC(=O)c2ccc(CNS(=O)(=O)c3ccc(C)cc3)cc2)C(C)C)cc1`, the IC50 [12] is reported as 1.17 µM (active), the IC50 [13] is reported as 0.246 µM (active) and the IC50 (Mu-type opioid receptor) is reported as > 32 µM (inactive). For the same compound, the IC50 [14] was > 32 µM (inactive).

In the case of `CN(CCC#N)C(=O)COC(=O)c1c2c(nc3ccccc13)/C(=C/c1ccco1)CC2`, the IC50 [15] is reported as 1.44 µM (active), the IC50 [16] is reported as 6.19 µM (active) and the IC50 [17] is reported as 62.4 µM (inactive). For the same compound, the IC50 [18] was 4.76 µM (active), the IC50 [19] was 16.9 µM (active) and the IC50 [20] was 2.82 µM (active). For the same compound, the IC50 [21] was 3.22 µM (active), the IC50 [22] was 6.34 µM (active) and the IC50 [23] was 7.86 µM (active). For the same compound, the IC50 [24] was > 100 µM (inactive), the IC50 (Prothrombin) was 6.71 µM (active) and the IC50 [25] was > 100 µM (inactive).

With `COc1ccccc1C(=O)Oc1ccc2c(c1)O/C(=C\c1ccncc1)C2=O` the EC50 (Troponin, cardiac muscle) was 13.7 µM (inactive), the IC50 (Perilipin-1/ABHD5) was 6.72 µM (active) and the IC50 [26] was 8.12 µM (active).
